ChEMBL document CHEMBL1649524, “Resistance selection studies comparing the activity of razupenem (PTZ601) to vancomycin and linezolid against eight methicillin-resistant and two methicillin-susceptible Staphylococcus aureus strains” (2009)
≈ marks a conversion by molar mass, not a printed value.

Columns and labels:
Format in all cases: functional
Staphylococcus aureus [1] = assay: Antimicrobial activity against heterogeneous vancomycin-intermediate Staphylococcus aureus 873 measured on day 30 by macrodilution method
Staphylococcus aureus [2] = assay: Antimicrobial activity against methicillin-resistant Staphylococcus aureus 547 after 48 passages by macrodilution method
Staphylococcus aureus [3] = assay: Antimicrobial activity against vancomycin-intermediate Staphylococcus aureus 1287 measured on day 10 by macrodilution method; conditions: Staphylococcus aureus, 1287, 240 h
Staphylococcus aureus [4] = assay: Antimicrobial activity against methicillin-susceptible Staphylococcus aureus 540 measured on day 35 by macrodilution method
Staphylococcus aureus [5] = assay: Antimicrobial activity against heterogeneous vancomycin-intermediate Staphylococcus aureus 873 measured on day 35 by macrodilution method
Staphylococcus aureus [6] = assay: Antimicrobial activity against methicillin-resistant Staphylococcus aureus 525 measured on day 50 by macrodilution method
Staphylococcus aureus [7] = assay: Antimicrobial activity against vancomycin-intermediate Staphylococcus aureus 1287 measured after 10 antibiotic-free subculturing by macrodilution method
Staphylococcus aureus [8] = assay: Antimicrobial activity against vancomycin-resistant Staphylococcus aureus 510 after 50 passages by macrodilution method
Staphylococcus aureus [9] = assay: Antimicrobial activity against methicillin-resistant Staphylococcus aureus 525 measured on day 20 by macrodilution method; conditions: Staphylococcus aureus, 525, 480 h
Staphylococcus aureus [10] = assay: Antimicrobial activity against heterogeneous vancomycin-intermediate Staphylococcus aureus 873 measured on day 40 by macrodilution method
Staphylococcus aureus [11] = assay: Antimicrobial activity against methicillin-resistant Staphylococcus aureus 547 measured on day 40 by macrodilution method
Staphylococcus aureus [12] = assay: Antimicrobial activity against methicillin-resistant Staphylococcus aureus 525 measured on day 25 by macrodilution method; conditions: Staphylococcus aureus, 525, 600 h
Staphylococcus aureus [13] = assay: Antimicrobial activity against vancomycin-resistant Staphylococcus aureus 510 measured on day 35 by macrodilution method
Staphylococcus aureus [14] = assay: Antimicrobial activity against methicillin-resistant Staphylococcus aureus 525 measured on day 35 by macrodilution method
Staphylococcus aureus [15] = assay: Antimicrobial activity against vancomycin-resistant Staphylococcus aureus 510 measured on day 25 by macrodilution method; conditions: Staphylococcus aureus, 510, 600 h
Staphylococcus aureus [16] = assay: Antimicrobial activity against vancomycin-intermediate Staphylococcus aureus 1287 measured on day 45 by macrodilution method
Staphylococcus aureus [17] = assay: Antimicrobial activity against vancomycin-resistant Staphylococcus aureus 509 measured after 10 antibiotic-free subculturing by macrodilution method
Staphylococcus aureus [18] = assay: Antimicrobial activity against methicillin-resistant Staphylococcus aureus 547 measured on day 15 by macrodilution method; conditions: Staphylococcus aureus, 547, 360 h
Staphylococcus aureus [19] = assay: Antimicrobial activity against heterogeneous vancomycin-intermediate Staphylococcus aureus 168 measured on day 25 by macrodilution method; conditions: Staphylococcus aureus, 168, 600 h
Staphylococcus aureus [20] = assay: Antimicrobial activity against vancomycin-intermediate Staphylococcus aureus 1287 measured on day 5 by macrodilution method; conditions: Staphylococcus aureus, 1287, 120 h
Staphylococcus aureus [21] = assay: Antimicrobial activity against methicillin-resistant Staphylococcus aureus 547 measured on day 20 by macrodilution method; conditions: Staphylococcus aureus, 547, 480 h
Staphylococcus aureus [22] = assay: Antimicrobial activity against heterogeneous vancomycin-intermediate Staphylococcus aureus 168 after 50 passages by macrodilution method
Staphylococcus aureus [23] = assay: Antimicrobial activity against vancomycin-resistant Staphylococcus aureus 510 measured on day 20 by macrodilution method; conditions: Staphylococcus aureus, 510, 480 h
Staphylococcus aureus [24] = assay: Antimicrobial activity against vancomycin-intermediate Staphylococcus aureus 1287 measured on day 25 by macrodilution method; conditions: Staphylococcus aureus, 1287, 600 h
Staphylococcus aureus [25] = assay: Antimicrobial activity against methicillin-resistant Staphylococcus aureus 547 measured on day 25 by macrodilution method; conditions: Staphylococcus aureus, 547, 600 h
Staphylococcus aureus [26] = assay: Antimicrobial activity against methicillin-susceptible Staphylococcus aureus 540 measured on day 30 by macrodilution method
Staphylococcus aureus [27] = assay: Antimicrobial activity against vancomycin-intermediate Staphylococcus aureus 1287 measured on day 20 by macrodilution method; conditions: Staphylococcus aureus, 1287, 480 h
Staphylococcus aureus [28] = assay: Antimicrobial activity against heterogeneous vancomycin-intermediate Staphylococcus aureus 168 measured on day 35 by macrodilution method
Staphylococcus aureus [29] = assay: Antimicrobial activity against vancomycin-intermediate Staphylococcus aureus 1287 measured on day 35 by macrodilution method
Staphylococcus aureus [30] = assay: Antimicrobial activity against methicillin-resistant Staphylococcus aureus 525 after 50 passages by macrodilution method
Staphylococcus aureus [31] = assay: Antimicrobial activity against methicillin-susceptible Staphylococcus aureus 543 measured on day 15 by macrodilution method; conditions: Staphylococcus aureus, 543, 360 h
Staphylococcus aureus [32] = assay: Antimicrobial activity against methicillin-resistant Staphylococcus aureus 547 measured on day 30 by macrodilution method
Staphylococcus aureus [33] = assay: Antimicrobial activity against methicillin-resistant Staphylococcus aureus 525 measured on day 40 by macrodilution method
Staphylococcus aureus [34] = assay: Antimicrobial activity against heterogeneous vancomycin-intermediate Staphylococcus aureus 168 measured on day 10 by macrodilution method; conditions: Staphylococcus aureus, 168, 240 h
Staphylococcus aureus [35] = assay: Antimicrobial activity against vancomycin-resistant Staphylococcus aureus 510 measured on day 30 by macrodilution method
Staphylococcus aureus [36] = assay: Antimicrobial activity against vancomycin-intermediate Staphylococcus aureus 1287 measured on day 40 by macrodilution method
Staphylococcus aureus [37] = assay: Antimicrobial activity against vancomycin-intermediate Staphylococcus aureus 1287 measured on day 30 by macrodilution method
Staphylococcus aureus [38] = assay: Antimicrobial activity against methicillin-resistant Staphylococcus aureus 547 measured on day 45 by macrodilution method
Staphylococcus aureus [39] = assay: Antimicrobial activity against heterogeneous vancomycin-intermediate Staphylococcus aureus 873 after 50 passages by macrodilution method
Staphylococcus aureus [40] = assay: Antimicrobial activity against vancomycin-intermediate Staphylococcus aureus 1287 after 50 passages by macrodilution method
Staphylococcus aureus [41] = assay: Antimicrobial activity against vancomycin-resistant Staphylococcus aureus 509 measured on day 20 by macrodilution method; conditions: Staphylococcus aureus, 509, 480 h
Staphylococcus aureus [42] = assay: Antimicrobial activity against heterogeneous vancomycin-intermediate Staphylococcus aureus 168 measured on day 45 by macrodilution method
Staphylococcus aureus [43] = assay: Antimicrobial activity against methicillin-resistant Staphylococcus aureus 547 measured on day 35 by macrodilution method
Staphylococcus aureus [44] = assay: Antimicrobial activity against vancomycin-intermediate Staphylococcus aureus 1287 measured on day 15 by macrodilution method; conditions: Staphylococcus aureus, 1287, 360 h
Staphylococcus aureus [45] = assay: Antimicrobial activity against methicillin-susceptible Staphylococcus aureus 540 measured on day 25 by macrodilution method; conditions: Staphylococcus aureus, 540, 600 h
Staphylococcus aureus [46] = assay: Antimicrobial activity against methicillin-susceptible Staphylococcus aureus 543 measured on day 10 by macrodilution method; conditions: Staphylococcus aureus, 543, 240 h
Staphylococcus aureus [47] = assay: Antimicrobial activity against methicillin-susceptible Staphylococcus aureus 543 after 15 passages by macrodilution method
Staphylococcus aureus [48] = assay: Antimicrobial activity against methicillin-resistant Staphylococcus aureus 525 measured on day 45 by macrodilution method
Staphylococcus aureus [49] = assay: Antimicrobial activity against heterogeneous vancomycin-intermediate Staphylococcus aureus 168 measured on day 15 by macrodilution method; conditions: Staphylococcus aureus, 168, 360 h
Staphylococcus aureus [50] = assay: Antimicrobial activity against heterogeneous vancomycin-intermediate Staphylococcus aureus 873 measured on day 50 by macrodilution method
Staphylococcus aureus [51] = assay: Antimicrobial activity against heterogeneous vancomycin-intermediate Staphylococcus aureus 873 measured on day 45 by macrodilution method
Staphylococcus aureus [52] = assay: Antimicrobial activity against vancomycin-intermediate Staphylococcus aureus 1287 measured on day 50 by macrodilution method
Staphylococcus aureus [53] = assay: Antimicrobial activity against methicillin-susceptible Staphylococcus aureus 540 measured on day 15 by macrodilution method; conditions: Staphylococcus aureus, 540, 360 h
Staphylococcus aureus [54] = assay: Antimicrobial activity against vancomycin-resistant Staphylococcus aureus 509 measured on day 40 by macrodilution method
Staphylococcus aureus [55] = assay: Antimicrobial activity against methicillin-susceptible Staphylococcus aureus 540 measured on day 20 by macrodilution method; conditions: Staphylococcus aureus, 540, 480 h
Staphylococcus aureus [56] = assay: Antimicrobial activity against vancomycin-resistant Staphylococcus aureus 510 measured on day 50 by macrodilution method
Staphylococcus aureus [57] = assay: Antimicrobial activity against heterogeneous vancomycin-intermediate Staphylococcus aureus 168 measured on day 50 by macrodilution method
Staphylococcus aureus [58] = assay: Antimicrobial activity against heterogeneous vancomycin-intermediate Staphylococcus aureus 168 measured on day 40 by macrodilution method
Staphylococcus aureus [59] = assay: Antimicrobial activity against vancomycin-resistant Staphylococcus aureus 509 measured on day 25 by macrodilution method; conditions: Staphylococcus aureus, 509, 600 h
Staphylococcus aureus [60] = assay: Antimicrobial activity against vancomycin-resistant Staphylococcus aureus 509 after 28 passages by macrodilution method
Staphylococcus aureus [61] = assay: Antimicrobial activity against heterogeneous vancomycin-intermediate Staphylococcus aureus 168 measured on day 20 by macrodilution method; conditions: Staphylococcus aureus, 168, 480 h
Staphylococcus aureus [62] = assay: Antimicrobial activity against methicillin-resistant Staphylococcus aureus 525 measured on day 15 by macrodilution method; conditions: Staphylococcus aureus, 525, 360 h
Staphylococcus aureus [63] = assay: Antimicrobial activity against methicillin-susceptible Staphylococcus aureus 543 measured after 10 antibiotic-free subculturing by macrodilution method

## CC(=O)NC[C@H]1CN(c2ccc(N3CCOCC3)c(F)c2)C(=O)O1 [LINEZOLID]
Staphylococcus aureus [1]
  MIC: 16 µg/mL (≈ 47.4 µM)
Staphylococcus aureus [2]
  MIC: 32 µg/mL (≈ 94.9 µM)
Staphylococcus aureus [3]
  MIC: 8 µg/mL (≈ 23.7 µM)
Staphylococcus aureus [4]
  MIC: 32 µg/mL (≈ 94.9 µM)
Staphylococcus aureus [5]
  MIC: 8 µg/mL (≈ 23.7 µM)
Staphylococcus aureus [6]
  MIC: 16 µg/mL (≈ 47.4 µM)
Staphylococcus aureus [7]
  MIC: 8 µg/mL (≈ 23.7 µM)
Staphylococcus aureus [8]
  MIC: 16 µg/mL (≈ 47.4 µM)
Staphylococcus aureus [9]
  MIC: 16 µg/mL (≈ 47.4 µM)
Staphylococcus aureus [10]
  MIC: 8 µg/mL (≈ 23.7 µM)
Staphylococcus aureus [11]
  MIC: 16 µg/mL (≈ 47.4 µM)
Staphylococcus aureus [12]
  MIC: 16 µg/mL (≈ 47.4 µM)
Staphylococcus aureus [13]
  MIC: 8 µg/mL (≈ 23.7 µM)
Staphylococcus aureus [14]
  MIC: 16 µg/mL (≈ 47.4 µM)
Staphylococcus aureus [15]
  MIC: 8 µg/mL (≈ 23.7 µM)
Staphylococcus aureus [16]
  MIC: 16 µg/mL (≈ 47.4 µM)
Staphylococcus aureus [17]
  MIC: 32 µg/mL (≈ 94.9 µM)
Staphylococcus aureus [18]
  MIC: 8 µg/mL (≈ 23.7 µM)
Staphylococcus aureus [19]
  MIC: 8 µg/mL (≈ 23.7 µM)
Staphylococcus aureus [20]
  MIC: 8 µg/mL (≈ 23.7 µM)
Staphylococcus aureus [21]
  MIC: 8 µg/mL (≈ 23.7 µM)
Staphylococcus aureus [22]
  MIC: 16 µg/mL (≈ 47.4 µM)
Staphylococcus aureus [23]
  MIC: 8 µg/mL (≈ 23.7 µM)
Staphylococcus aureus [24]
  MIC: 8 µg/mL (≈ 23.7 µM)
Staphylococcus aureus [25]
  MIC: 16 µg/mL (≈ 47.4 µM)
Staphylococcus aureus [26]
  MIC: 16 µg/mL (≈ 47.4 µM)
Staphylococcus aureus [27]
  MIC: 8 µg/mL (≈ 23.7 µM)
Staphylococcus aureus [28]
  MIC: 8 µg/mL (≈ 23.7 µM)
Staphylococcus aureus [29]
  MIC: 16 µg/mL (≈ 47.4 µM)
Staphylococcus aureus [30]
  MIC: 16 µg/mL (≈ 47.4 µM)
Staphylococcus aureus [31]
  MIC: 32 µg/mL (≈ 94.9 µM)
Staphylococcus aureus [32]
  MIC: 16 µg/mL (≈ 47.4 µM)
Staphylococcus aureus [33]
  MIC: 16 µg/mL (≈ 47.4 µM)
Staphylococcus aureus [34]
  MIC: 8 µg/mL (≈ 23.7 µM)
Staphylococcus aureus [35]
  MIC: 8 µg/mL (≈ 23.7 µM)
Staphylococcus aureus [36]
  MIC: 16 µg/mL (≈ 47.4 µM)
Staphylococcus aureus [37]
  MIC: 16 µg/mL (≈ 47.4 µM)
Staphylococcus aureus [38]
  MIC: 32 µg/mL (≈ 94.9 µM)
Staphylococcus aureus [39]
  MIC: 8 µg/mL (≈ 23.7 µM)
Staphylococcus aureus [40]
  MIC: 16 µg/mL (≈ 47.4 µM)
Staphylococcus aureus [41]
  MIC: 8 µg/mL (≈ 23.7 µM)
Staphylococcus aureus [42]
  MIC: 8 µg/mL (≈ 23.7 µM)
Staphylococcus aureus [43]
  MIC: 16 µg/mL (≈ 47.4 µM)
Staphylococcus aureus [44]
  MIC: 8 µg/mL (≈ 23.7 µM)
Staphylococcus aureus [45]
  MIC: 16 µg/mL (≈ 47.4 µM)
Staphylococcus aureus [46]
  MIC: 8 µg/mL (≈ 23.7 µM)
Staphylococcus aureus [47]
  MIC: 32 µg/mL (≈ 94.9 µM)
Staphylococcus aureus [48]
  MIC: 16 µg/mL (≈ 47.4 µM)
Staphylococcus aureus [49]
  MIC: 8 µg/mL (≈ 23.7 µM)
Staphylococcus aureus [50]
  MIC: 8 µg/mL (≈ 23.7 µM)
Staphylococcus aureus [51]
  MIC: 8 µg/mL (≈ 23.7 µM)
Staphylococcus aureus [52]
  MIC: 16 µg/mL (≈ 47.4 µM)
Staphylococcus aureus [53]
  MIC: 16 µg/mL (≈ 47.4 µM)
Staphylococcus aureus [54]
  MIC: 8 µg/mL (≈ 23.7 µM)
Staphylococcus aureus [55]
  MIC: 16 µg/mL (≈ 47.4 µM)
Staphylococcus aureus [56]
  MIC: 16 µg/mL (≈ 47.4 µM)
Staphylococcus aureus [57]
  MIC: 16 µg/mL (≈ 47.4 µM)
Staphylococcus aureus [58]
  MIC: 8 µg/mL (≈ 23.7 µM)
Staphylococcus aureus [59]
  MIC: 16 µg/mL (≈ 47.4 µM)
Staphylococcus aureus [60]
  MIC: 16 µg/mL (≈ 47.4 µM)
Staphylococcus aureus [61]
  MIC: 8 µg/mL (≈ 23.7 µM)
Staphylococcus aureus [62]
  MIC: 16 µg/mL (≈ 47.4 µM)
Staphylococcus aureus [63]
  MIC: 32 µg/mL (≈ 94.9 µM)
